# Data taken from patent publication US20040192734A1, “4-(3-aminomethylphenyl)piperidin-1-yl]-[5-(2-fluorophenylethynyl)furan-2-yl]-methanone as an inhibitor of mast cell tryptase” (AVENTIS PHARMACEUTICALS INC., priority 2002, published 2004).
# “And” between values parts separate entries of the source, which are not always exact repeats. Equal entries are not always repeated. Structures can show the parent of a compound that is named as a salt. Where two headings read alike, the source gives them in different places.
# Experiments:
# [1] = target: T1, recombinant human β tryptase (Homo sapiens, UniProt Q15661); experiment: β-Tryptase Inhibition (chromogenic assay); format: biochemical; settings: for Ki: chromogenic assay, substrate S2366 0.5 mM, room temperature, Ki calculated from IC50
# T1 construct: made in house; host or cells: yeast cells
# T1 sequence (Q15661 31-275): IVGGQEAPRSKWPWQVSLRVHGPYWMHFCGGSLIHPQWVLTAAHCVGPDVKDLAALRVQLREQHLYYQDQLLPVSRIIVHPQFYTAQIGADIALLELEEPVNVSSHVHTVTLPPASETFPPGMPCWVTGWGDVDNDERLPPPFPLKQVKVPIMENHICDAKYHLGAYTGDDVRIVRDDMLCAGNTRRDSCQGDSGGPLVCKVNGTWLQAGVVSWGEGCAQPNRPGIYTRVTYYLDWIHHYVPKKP
# From the text: Tr0yptase inhibition activity is confirmed using either isolated human lung tryptase or recombinant human β tryptase expressed in yeast cells. Essentially equivalent results are obtained using isolated native enzyme or the expressed enzyme. The assay procedure employs a 96 well microplate (Costar 3590) using L-pyroglutamyl-L-prolyl-L-arginine-para-nitroanilide (S2366: Quadratech) as substrate (essentially as described by McEuen et. al. Biochem Pharm, 1996, 52, pages 331-340). Assays are performed at room temperature using 0.5 mM substrate (2×Km) and the microplate is read on a microplate reader (Beckman Biomek Plate reader) at 405 nm wavelength. The inhibition constants (Ki) for the compound of the present invention and other structurally related compounds, are set forth in Table 1.
# Materials and Methods for Trtase Primary Screen (Chromogenic Assay)
# S2366 (Stock solutions of 2.5 mM).
# Purified recombinant beta Tryptase Stocks of 310 μg/mL.
# Add 60 μL of diluted substrate (final concentration of 500 μM in assay buffer) to each well
# Add compound in duplicates, final concentration of 20 μM, volume 20 μL
# Add enzyme at a final concentration of 50 ng/mL in a volume of 20 μL
# Total volume for each well is 100 μL
# Agitate briefly to mix and incubate at room temp in the dark for 30 minutes
# Read absorbencies at 405 nM
# Protocol (IC50 and Ki Determination)
# The protocol is essentially the same as above except that the compound is added in duplicates at the following final concentrations: 0.01, 0.03, 0.1, 0.3, 1, 3, 10 uM (All dilutions carried out manually). For every assay, whether single point or IC50 determination, a standard compound is used to derive IC50 for comparison. From the IC50 value, the Ki can be calculated using the following formula:
# Ki=IC50/(1+[Substrate]/Km).
# [2] = system: Airway Hyperresponsiveness (AHR) to histamine in sensitized guinea pigs; experiment: Guinea Pig Model of Airway Hyperreactivity; format: in vivo; settings: for protection against AHR to histamine, airway resistance: oral dosing, Structure (III) where X=H dosed at 3, 10, and 30 mg/kg; for protection against AHR to histamine, airway resistance / Oral ID50 Dynamic Lung Compliance / Oral ID50 Airway Hyperresponsiveness: 2 hours prior to ovalbumin challenge; for Oral ID50 Dynamic Lung Compliance: Cdyn40; for Oral ID50 Airway Hyperresponsiveness: airway resistance (RL300)
# Experimental: Sensitization and drug treatment: Male Hartley guinea pigs (225-250g) are sensitized with ovalbumin (0.5 mL of 1% solution, i.p. and s.c.). On day 4, animals received a booster injection (i.p.) of 0.5 mL of 1% ovalbumin. On day 21, animals are orally dosed (2 ml/kg) with either vehicle (0.5% methylcellulose/0.2% Tween 80) or test compound 2 hours prior to antigen challenge. Thirty minutes before antigen challenge the animals are also injected with mepyramine (30 mg/kg, i.p.) to prevent anaphylactic collapse. Animals are then exposed for 5 minutes to an aerosol of either saline (control animals) or 1% ovalbumin using a deVilbiss Ultraneb nebulizer.
# AHR measurement: Eighteen to twenty four hours after challenge, animals are anesthetized with a combination of ketamine (133 mg/kg) and xylazine (24 mg/kg) given intramuscularly, surgically prepared and then mounted in a whole body plethysmograph for lung function measurement. Animals were connected to Ugo-Basile ventilators delivering a tidal volume of 1 mL/100 g at a rate of 50 breaths/minute via a tracheal cannula. The jugular vein is also cannulated for histamine challenge. A water filled oesophageal cannula is placed such that transpulmonary pressure could be recorded. Transpulmonary pressure is measured as the difference between the tracheal and esophageal cannulas using a differential pressure transducer. The volume, airflow, and transpulmonary pressure signals are monitored using a pulmonary analysis system (Buxco XA software) and used to calculate pulmonary resistance (cm H2O/mL/s) and dynamic compliance (mL/cm H2O). Airway resistance and dynamic compliance were computed on a breath by breath basis. Histamine is administered intravenously and reactivity to increasing concentrations (0.1-10 μg/kg) assessed. ID50's are estimated from the RL300 (histamine concentration required to 300% increase in lung resistance) and Cdyn40 (histamine concentration required to induce a 40% decrease in dynamic lung compliance) parameters deduced from the individual […] a histamine dose-response curves.
# [3] = system: Airway Hyperresponsiveness (AHR) to histamine in sensitized guinea pigs; experiment: Guinea Pig Model of Airway Hyperreactivity; format: in vivo; settings: for protective effect as measured by airway resistance / protective effect as measured by lung compliance: intravenous dosing at 0.3, 1 and 3 mg/kg; for Intravenous ID50 Dynamic Lung Compliance: Cdyn40, histamine challenge; for Intravenous ID50 Dynamic Lung Compliance / Intravenous ID50 Airway Hyperresponsiveness: ovalbumin-sensitized guinea pigs; for Intravenous ID50 Airway Hyperresponsiveness: airway resistance (RL300), histamine challenge
# [4] = target: T1, recombinant human β tryptase; settings: greatest β-Tryptase inhibitory potency disclosed in U.S. application Ser. No. 09/843,126; cited from earlier work
# [5] = listed as compound of the present invention, trifluoroacetate
Structure (SMILES),Ki [1],"protection against AHR to histamine, airway resistance [2]",Oral ID50 Dynamic Lung Compliance [2],Oral ID50 Airway Hyperresponsiveness [2],protective effect as measured by airway resistance [3],protective effect as measured by lung compliance [3],Intravenous ID50 Dynamic Lung Compliance [3],Intravenous ID50 Airway Hyperresponsiveness [3],other results
"NCc1cccc(C2CCN(C(=O)c3ccc(C#Cc4ccccc4F)o3)CC2)c1 [Structure (III) where X = F, [4-(3-Aminomethylphenyl)piperidin-1-yl]-[5-(2-fluorophenylethynyl)furan-2-yl]-methanone trifluoroacetate]",7.6 to 9.7 nM and 7.6 nM and 9.7 nM,significantly protects against AHR to histamine,1 to 2 mg/kg,1 to 2 mg/kg,protective at all doses,protective at all doses,,,"effect on basal airway resistance ([2]; sensitized guinea pigs): no effect; effect on basal dynamic lung compliance ([2]; sensitized guinea pigs): no effect; Intravenous ID50 Dynamic Lung Compliance [3, 5]: < 0.3 mg/kg; Intravenous ID50 Dynamic Lung Compliance ([3]; trifluoroacetate): <0.3 mg/kg; Intravenous ID50 Airway Hyperresponsiveness [3, 5]: < 0.3 mg/kg; Intravenous ID50 Airway Hyperresponsiveness ([3]; trifluoroacetate): <0.3 mg/kg"
"NCc1cccc(C2CCN(C(=O)c3ccc(C#Cc4ccccc4)o3)CC2)c1.O=C(O)C(F)(F)F [Structure (III) where X = H, [4-(3-aminomethylphenyl)piperidin-1-yl]-(5-phenylethynylfuran-2-yl)methanone trifluoroacetate]",31 nM,"protective on airway resistance, but the effects are not statistically significant",>30 mg/kg,"Protective at 3,",reversed airway resistance at the highest dose,does not show any protective effects,>3.0 mg/kg,1 to 3 mg/kg,"fold increase in β-Tryptase inhibitory potency ([1]; Structure (III) where X=H versus Structure (II) where X=H): 3.42 fold; effect on lung compliance ([2]; oral dosing at 3, 10, and 30 mg/kg): No effect"
"NCc1cccc(C2CCN(C(=O)c3cccc(C#Cc4ccccc4F)c3)CC2)c1.O=C(O)C(F)(F)F [Structure (II) where X=F, [4-(3-aminomethylphenyl)piperidin-1-yl]-[3-(2-fluorophenylethynyl)phenyl]methanone trifluoroacetate]",97 nM,,,,,,,,fold increase in β-Tryptase inhibitory potency ([1]; Structure (II) where X=F versus Structure (II) where X=H): 1.09 fold
"NCc1cccc(C2CCN(C(=O)c3ccc(Cl)c(Cl)c3)CC2)c1 [[4-(3-Aminomethylphenyl)piperidin-1-yl]-(3,4-dichlorophenyl) methanonetrifluoroacetate]",,,,,,,,,Ki [4]: 31 nM
"NCc1cccc(C2CCN(C(=O)c3cccc(C#Cc4ccccc4)c3)CC2)c1.O=C(O)C(F)(F)F [Structure (II) where X = H, [4-(3-aminomethylphenyl)piperidin-1-yl]-(3-phenylethynylphenyl)methanone trifluoroacetate]",106 nM,,,,uniformly ineffective,does not show any protective effects,>3.0 mg/kg,>3.0 mg/kg,
